Where two headings read alike, the source gives them in different places.
Key:
[1] = Summary of the method: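 LCO probes (3 μM) were added to serial two-fold dilutions of carbohydrate suspensions in dH2O, with excitation scanned 300–500 nm and emission at 545 nm. Detection was a reproducible λmax and/or RFU change versus no-carbohydrate control. RFU was regressed linearly against concentration at the λmax or the lowest-background excitation.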
[2] = for RFU change (Correlation analysis) / RFU change (Signal deviation with increasing [Carbohydrate]) / λmax change: 3 μM probe; for RFU change (Correlation analysis): probe-specific excitation λ, emission 545 nm; for RFU change (Signal deviation with increasing [Carbohydrate]) / λmax change: spectral analysis, Excitation 300-500, Emission 545; for carbohydrate can be detected and/or differentiated by the LCO: conclusion from change in signal magnitude and/or shift in λmax; for Gradient Parameters (gradient of regression line) / Linear relationship / Quality of Gradient: linear regression
Summary of the method: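 Each LCO probe at 3 μM was added to two-fold serial dilutions of carbohydrate in dH2O (10–0.039 mg/ml for β-1,3-glucan, cellulose, chitin; 5–0.019 mg/ml for the others), run in triplicate. Excitation spectra were scanned 300–500 nm with emission at 545 nm. Detection was a reproducible λmax and/or RFU shift versus negative control, with linear regression of RFU against concentration.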

[3] = remark: listed apart in the source
Summary of the method: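 LCO probes at 3 μM mixed with serial two-fold carbohydrate dilutions in water (10–0.039 or 5–0.019 mg/ml), run in triplicate. Excitation scanned 300–500 nm with emission at 545 nm; detection based on reproducible λmax or RFU shift against the no-carbohydrate control, with linear regression of RFU on concentration.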

[4] = for RFU change (Correlation analysis) / RFU change (Signal deviation with increasing [Carbohydrate]) / λmax change: 3 μM probe; for RFU change (Correlation analysis): probe-specific excitation λ, emission 545 nm; for RFU change (Signal deviation with increasing [Carbohydrate]) / λmax change: spectral analysis, Excitation 300-500, Emission 545
Summary of the method: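 LCO probes at 3 μM mixed with serial twofold carbohydrate dilutions in dH2O (10–0.039 or 5–0.019 mg/ml, depending on carbohydrate). Excitation scanned 300–500 nm, emission read at 545 nm; detection defined as reproducible shift in λmax and/or RFU relative to negative control, with linear regression of RFU against concentration.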

[5] = remark: listed apart in the source
Summary of the method: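 3 μM of each LCO probe was added to serial two-fold carbohydrate dilutions in water (10–0.039 or 5–0.019 mg/ml). Excitation spectra were scanned 300–500 nm with emission at 545 nm, in triplicate. Detection was defined as a reproducible shift in λmax and/or RFU versus negative control, with linear regression of RFU against concentration.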

[6] = for RFU change (Correlation analysis): probe-specific excitation λ, emission 545 nm
Summary of the method: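 LCO probes at 3 μM mixed with serial two-fold dilutions of carbohydrate in dH2O (10–0.039 or 5–0.019 mg/ml, depending on carbohydrate), in triplicate. Excitation scanned 300–500 nm or fixed per probe (λmax or lowest background), emission at 545 nm. Detection taken as reproducible λmax/RFU shift vs no-carbohydrate control; RFU regressed linearly on concentration.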

[7] = Sodium alginate 5-0.019 mg/ml, 3 μM probe, spectral analysis, Excitation 300-500, Emission 545
[8] = sodium alginate concentration vs RFU, linear regression
[9] = β-1,3-glucan concentration vs RFU
[10] = glucose concentration vs RFU, linear regression
[11] = glycogen concentration vs RFU, linear regression
[12] = heparin concentration vs RFU, linear regression
[13] = Chondroitin Sulfate A 5-0.019 mg/ml, 3 μM probe, spectral analysis, Excitation 300-500, Emission 545
[14] = Chondroitin Sulfate A concentration vs RFU, linear regression
[15] = Cellulobiose 5-0.019 mg/ml, 3 μM probe, spectral analysis, Excitation 300-500, Emission 545
[16] = amylose concentration vs RFU, linear regression
[17] = cellulobiose concentration vs RFU, linear regression

## Cl.Cl.NCCc1cc(-c2cccs2)sc1-c1ccc(-c2sc(-c3cccs3)cc2CCN)s1 [pHTEA, penta Hydrogen Thiophene Ethanol Amine]
[1]; Sodium alginate 5-0.019 mg/ml, 3 μM probe, probe-specific excitation λ, emission 545 nm
  RFU change (Correlation analysis): Increases
[1]; [7]
  RFU change (Signal deviation with increasing [Carbohydrate]): Increases
  λmax change: Redshift
[1]; Sodium alginate, conclusion from change in signal magnitude and/or shift in λmax
  carbohydrate can be detected and/or differentiated by the LCO: can be detected and/or differentiated
[1]; [8]
  Gradient Parameters (gradient of regression line): 832.4 ± 174.5
  Linear relationship: Significant
  Quality of Gradient: Positive
[1]; to sodium alginate
  Sensitivity: Yes
[2]; Cellulose 10-[…]
  RFU change (Correlation analysis): Increase
  RFU change (Signal deviation with increasing [Carbohydrate]): Increase
  λmax change: Redshift
[2]; Cellulose
  carbohydrate can be detected and/or differentiated by the LCO: can be detected and/or differentiated
[2]; Chitin 10-[…]
  RFU change (Correlation analysis): Decreases
  RFU change (Signal deviation with increasing [Carbohydrate]): Decrease
  λmax change: Redshift
[2]; Chitin
  carbohydrate can be detected and/or differentiated by the LCO: can be detected and/or differentiated
[2]; cellulose concentration vs RFU
  Gradient Parameters (gradient of regression line): 6001 ± 1187
  Linear relationship: Significant
  Quality of Gradient: Positive
[2]; chitin concentration vs RFU
  Gradient Parameters (gradient of regression line): −9030 ± 110.1
  Linear relationship: Significant
  Quality of Gradient: Negative
[2]; to cellulose
  Sensitivity: Yes
[2]; to chitin
  Sensitivity: Yes
[2]; to β-1,3-glucan
  Sensitivity: Yes
[2]; β-1,3-Glucan
  carbohydrate can be detected and/or differentiated by the LCO: can be detected and/or differentiated
[2]; β-1,3-glucan 10-[…]
  RFU change (Correlation analysis): Decrease
  RFU change (Signal deviation with increasing [Carbohydrate]): Decrease
  λmax change: Redshift
[2]; [9]
  Gradient Parameters (gradient of regression line): −664.6 ± 206.2
  Quality of Gradient: Negative
[3]; Glucose 5-0.019 mg/ml, 3 μM probe, probe-specific excitation λ, emission 545 nm
  RFU change (Correlation analysis): Unclear
[3]; Glucose 5-0.019 mg/ml, 3 μM probe, spectral analysis, Excitation 300-500, Emission 545
  RFU change (Signal deviation with increasing [Carbohydrate]): Increases
[3]; [10]
  Gradient Parameters (gradient of regression line): −67.4 ± 37.2
  Quality of Gradient: Horizontal
[3]; to glucose
  Sensitivity: No
[4]; Glycogen 5-0.019 mg/ml
  RFU change (Correlation analysis): Decreases
  RFU change (Signal deviation with increasing [Carbohydrate]): Decreases
  λmax change: Redshift
[4]; Glycogen, conclusion from change in signal magnitude and/or shift in λmax
  carbohydrate can be detected and/or differentiated by the LCO: can be detected and/or differentiated
[4]; Heparin 5-0.019 mg/ml
  RFU change (Correlation analysis): Unclear
  RFU change (Signal deviation with increasing [Carbohydrate]): Decreases
  λmax change: Redshift
[4]; [11]
  Gradient Parameters (gradient of regression line): −451 ± 328
  Quality of Gradient: Negative
[4]; [12]
  Gradient Parameters (gradient of regression line): −109.3 ± 248
  Linear relationship: Not Significant
  Quality of Gradient: Horizontal
[4]; to glycogen
  Sensitivity: Yes
[4]; to heparin
  Sensitivity: No
[5]; Chondroitin Sulfate A 5-0.019 mg/ml, 3 μM probe, probe-specific excitation λ, emission 545 nm
  RFU change (Correlation analysis): Increases
[5]; [13]
  RFU change (Signal deviation with increasing [Carbohydrate]): Increases
  λmax change: Redshift
[5]; [14]
  Gradient Parameters (gradient of regression line): 5989 ± 727
  Linear relationship: Significant
  Quality of Gradient: Positive
[5]; Chondroitin sulfate A, conclusion from change in signal magnitude and/or shift in λmax
  carbohydrate can be detected and/or differentiated by the LCO: can be detected and/or differentiated
[5]; to Chondroitin Sulfate A
  Sensitivity: Yes
[6]; Amylose 5-0.019 mg/ml, 3 μM probe
  RFU change (Correlation analysis): Decreases
[6]; Amylose 5-0.019 mg/ml, 3 μM probe, spectral analysis, Excitation 300-500, Emission 545
  RFU change (Signal deviation with increasing [Carbohydrate]): Decreases
[6]; Amylose, conclusion from change in signal magnitude and/or shift in λmax
  carbohydrate can be detected and/or differentiated by the LCO: can be detected and/or differentiated
[6]; Cellulobiose 5-0.019 mg/ml, 3 μM probe
  RFU change (Correlation analysis): Unclear
[6]; [15]
  RFU change (Signal deviation with increasing [Carbohydrate]): Unclear
  λmax change: No change
[6]; [16]
  Gradient Parameters (gradient of regression line): −6680 ± 1421
  Linear relationship: Significant
  Quality of Gradient: Negative
[6]; [17]
  Gradient Parameters (gradient of regression line): 39.5 ± 66.5
  Quality of Gradient: Horizontal
[6]; to amylose
  Sensitivity: Yes
[6]; to cellulobiose
  Sensitivity: No

— patent publication US9958439B2, “Carbohydrate detection” (RICHTER LIFE SCIENCE DEVELOPMENT AB, priority 2012, dated 2018)
